Publication PMC10094639, “Novel Antibiotic Resistance Genes Identified by Functional Gene Library Screening in Stenotrophomonas maltophilia and Chryseobacterium spp. Bacteria of Soil Origin” (International Journal of Molecular Sciences, 2023)
Values after ≈ are worked out from the molar mass of the structure shown.

Assays:
[1] = tested on: S. maltophilia; assay: microbe, parasite or virus in culture; set-up: Broth microdilution MIC (Sensititre plates, ARIS 2X) against soil bacterial isolates; details: Stenotrophomonas maltophilia
Description: (§1) Six Stenotrophomonas maltophilia and eight Chryseobacterium spp. antibiotic-resistant isolates were used for genomic library construction; all bacteria were isolated from farming field soil in Lithuania during the year 2016 [17, 65]. The isolates were designated as resistant if the MIC of antibiotic value matched EUCAST clinical breakpoints (v. 7.0, 2017, PK/PD (non-species related). Species were identified by matching obtained sequences with a sequence showing the highest maximum identity score from the GenBank database. If the identity of the best match was <99% and the query cover was <96%, only the genus was assigned. All environmental isolates were grown in LB medium at 28 °C. The bacteria were isolated from three farming fields in Lithuania during the year 2016 [17]. The sample collection points represented two different types of farming, i.e., organic and conventional (intensive); in all cases, the type of the soil was sandy loam. The organic farming sites were known not to use inorganic fertilizers or pesticides for a time period of over 20 years and were fertilized only with organic fertilizers (farmyard manure and slurry). Identification of bacterial isolates was based on 16S rRNA fragment sequencing as described previously. All six isolates of S. maltophilia were collected from a conventional winter wheat farming field. Antibiotic-resistant Chryseobacterium spp. isolates were recovered from various fields (conventional winter wheat, conventional rapeseed, and organic rapeseed). Two of the isolates were identified as C. aahli, and another two were identified as C. soldanellicola; for four of the isolates, only the genus could be assigned as Chryseobacterium spp. All selected isolates of S. maltophilia and Chryseobacterium spp. were resistant to at least two classes of antibiotics (β-lactams, aminoglycosides, and/or fluoroquinolones) (Table S1).

[2] = tested on: C. aahli; assay: organism not typed; set-up: Broth microdilution MIC (Sensititre plates, ARIS 2X) against soil bacterial isolates; details: soil
Description: as §1

[3] = tested on: Chryseobacterium sp.; assay: microbe, parasite or virus in culture; set-up: Broth microdilution MIC (Sensititre plates, ARIS 2X) against soil bacterial isolates; details: Chryseobacterium
Description: as §1

[4] = tested on: C. soldanellicola; assay: organism not typed; set-up: Broth microdilution MIC (Sensititre plates, ARIS 2X) against soil bacterial isolates; details: soil
Description: as §1

[5] = tested on: T1, CHM; assay: UV-Vis spectrophotometry, initial hydrolysis rates, […] nm; assay type: biochemical, Chryseobacterium sp.; details: 50 mM HEPES pH 7.0, 50 µM ZnCl2, 22 °C
T1 construct: signal peptide removed; pET-28b (NcoI) in E. coli BL21 Tuner (DE3); no tag mentioned

[6] = tested on: T2, IND-17; assay: as above; assay type: biochemical, Chryseobacterium sp.; details: 50 mM HEPES pH 7.0, 50 µM ZnCl2, 22 °C
T2 construct: signal peptide removed; pET-28b (NcoI) in E. coli BL21 Tuner (DE3); no tag mentioned

[7] = tested on: T1, CHM; assay: as above; assay type: biochemical, Chryseobacterium sp.; details: 50 mM HEPES pH 7.0, 50 µM ZnCl2, 22 °C; remark: listed apart in the source
[8] = tested on: T2, IND-17; assay: as above; assay type: biochemical, Chryseobacterium sp.; details: 50 mM HEPES pH 7.0, 50 µM ZnCl2, 22 °C; remark: listed apart in the source
[9] = tested on: T1, CHM; assay: as above; assay type: biochemical, Chryseobacterium sp.; details: 50 mM HEPES pH 7.0, 50 µM ZnCl2, 22 °C; remark: listed apart in the source
[10] = tested on: T2, IND-17; assay: as above; assay type: biochemical, Chryseobacterium sp.; details: 50 mM HEPES pH 7.0, 50 µM ZnCl2, 22 °C; remark: listed apart in the source
[11] = tested on: T1, CHM; assay: as above; assay type: biochemical, Chryseobacterium sp.; details: 50 mM HEPES pH 7.0, 50 µM ZnCl2, 22 °C; remark: listed apart in the source
[12] = tested on: T2, IND-17; assay: as above; assay type: biochemical, Chryseobacterium sp.; details: 50 mM HEPES pH 7.0, 50 µM ZnCl2, 22 °C; remark: listed apart in the source
[13] = tested on: T2, IND-17; assay: as above; assay type: biochemical, Chryseobacterium sp.; details: 50 mM HEPES pH 7.0, 50 µM ZnCl2, 22 °C; remark: listed apart in the source

| SMILES | MIC ([1]; Isolate No.=2-1-3) [µg/mL] | MIC ([1]; Isolate No.=2-4-11) [µg/mL] | MIC ([1]; Isolate No.=2-12-28) [µg/mL] | MIC ([2]; Isolate No.=3-7-14) [µg/mL] | MIC ([2]; Isolate No.=3-12-27) [µg/mL] | MIC ([3]; Isolate No.=2-2-6) [µg/mL] | MIC ([3]; Isolate No.=2-4-10) [µg/mL] | MIC ([4]; Isolate No.=3-7-16) [µg/mL] | MIC ([4]; Isolate No.=4-6-16) [µg/mL] | also measured |
| --- | --- | --- | --- | --- | --- | --- | --- | --- | --- | --- |
| CCN1CCN(C(=O)N[C@@H](C(=O)N[C@@H]2C(=O)N3[C@@H]2SC(C)(C)[C@@H]3C(=O)O)c2ccccc2)C(=O)C1=O [Piperacillin] | 64 (≈ 124 µM) | ≤ 16 | 32 (≈ 61.8 µM) | 32 (≈ 61.8 µM) | ≤ 16 | 32 (≈ 61.8 µM) | ≤ 16 | ≤ 16 |  | MIC ([3]; Isolate No.=2-6-15): 128 µg/mL (≈ 247 µM) |
| CO[C@@]1(NC(=O)Cc2cccs2)C(=O)N2C(C(=O)O)=C(COC(N)=O)CS[C@@H]21 [Cefoxitin] | 32 (≈ 74.9 µM) |  | > 32 | 32 (≈ 74.9 µM) |  | > 32 | 32 (≈ 74.9 µM) | 8 (≈ 18.7 µM) | 16 (≈ 37.4 µM) | MIC ([3]; Isolate No.=2-6-15): 16 µg/mL (≈ 37.4 µM) |
| NC[C@H]1O[C@H](O[C@H]2[C@H](O)[C@@H](O[C@H]3O[C@H](CO)[C@@H](O)[C@H](N)[C@H]3O)[C@H](N)C[C@@H]2N)[C@H](N)C[C@@H]1O [Tobramycin] | ≤ 4 |  |  | 8 (≈ 17.1 µM) |  | > 8 |  | 8 (≈ 17.1 µM) |  | MIC ([1]; Isolate No.=2-8-21): 8 µg/mL (≈ 17.1 µM) |
| C[C@@H](O)[C@H]1C(=O)N2C(C(=O)O)=C(SCCN=CN)C[C@H]12 [Imipenem] | 16 (≈ 53.4 µM) | > 16 |  | 16 (≈ 53.4 µM) |  | 8 (≈ 26.7 µM) | ≤ 2 | 4 (≈ 13.4 µM) |  | MIC ([3]; Isolate No.=2-8-20): 4 µg/mL (≈ 13.4 µM); Km [5]: 389 ± 48 µM; Km [6]: 185 ± 19 µM |
| CO/N=C(\C(=O)N[C@@H]1C(=O)N2C(C(=O)O)=C(CSc3nc(=O)c(O)nn3C)CS[C@H]12)c1csc(N)n1 [Ceftriaxone] | 32 (≈ 57.7 µM) |  | > 64 | 64 (≈ 115 µM) |  | > 64 | 64 (≈ 115 µM) | 4 (≈ 7.21 µM) | 8 (≈ 14.4 µM) |  |
| C[C@@H](O)[C@H]1C(=O)N2C(C(=O)O)=C(S[C@@H]3CN[C@H](C(=O)N(C)C)C3)[C@H](C)[C@H]12 [Meropenem] | ≤ 1 | 2 (≈ 5.22 µM) | > 8 | 8 (≈ 20.9 µM) |  | > 8 |  | 2 (≈ 5.22 µM) | 4 (≈ 10.4 µM) | Km [7]: 10 ± 2 µM; Km [8]: 258 ± 25 µM |
| CO/N=C(\C(=O)N[C@@H]1C(=O)N2C(C(=O)[O-])=C(C[N+]3(C)CCCC3)CS[C@H]12)c1csc(N)n1 [Cefepime] | ≤ 4 |  | > 32 | 8 (≈ 16.6 µM) | ≤ 4 | ≤ 4 |  | ≤ 4 |  | MIC ([1]; Isolate No.=2-12-31): 16 µg/mL (≈ 33.3 µM) |
| O=C(Cc1cccs1)N[C@@H]1C(=O)N2C(C(=O)O)=C(/C=C/c3ccc([N+](=O)[O-])cc3[N+](=O)[O-])CS[C@H]12 [Nitrocefin] |  |  |  |  |  |  |  |  |  | Km [9]: 153 ± 10 µM; Km [10]: 152 ± 4.7 µM |
| Cc1nnc(SCC2=C(C(=O)O)N3C(=O)[C@@H](NC(=O)Cn4cnnn4)[C@H]3SC2)s1 [Cefazolin] | 32 (≈ 70.4 µM) | > 32 |  | 32 (≈ 70.4 µM) |  | > 32 |  | 32 (≈ 70.4 µM) | > 32 | Km [11]: 167 ± 27 µM; Km [12]: 38 ± 12 µM |
| NCC[C@H](O)C(=O)N[C@@H]1C[C@H](N)[C@@H](O[C@H]2O[C@H](CN)[C@@H](O)[C@H](O)[C@H]2O)[C@H](O)[C@H]1O[C@H]1O[C@H](CO)[C@@H](O)[C@H](N)[C@H]1O [Amikacin] | ≤ 8 | 16 (≈ 27.3 µM) |  | 32 (≈ 54.6 µM) | ≤ 8 | ≤ 8 |  | 32 (≈ 54.6 µM) | ≤ 8 | MIC ([1]; Isolate No.=2-8-21): 32 µg/mL (≈ 54.6 µM); MIC ([3]; Isolate No.=2-6-15): 32 µg/mL (≈ 54.6 µM) |
| CC(C)(O/N=C(\C(=O)N[C@@H]1C(=O)N2C(C(=O)[O-])=C(C[n+]3ccccc3)CS[C@H]12)c1csc(N)n1)C(=O)O [Ceftazidime] | 4 (≈ 7.32 µM) | 2 (≈ 3.66 µM) | 8 (≈ 14.6 µM) | 8 (≈ 14.6 µM) | 4 (≈ 7.32 µM) | 2 (≈ 3.66 µM) | 4 (≈ 7.32 µM) | ≤ 1 |  | Km [11]: 200 ± 41 µM |
| CC1(C)S[C@@H]2[C@H](NC(=O)[C@H](N)c3ccccc3)C(=O)N2[C@H]1C(=O)O [Ampicillin] |  |  |  |  |  |  |  |  |  | Km [13]: 470 ± 108 µM |
| CO[C@@]1(NC(=O)C2SC(=C(C(N)=O)C(=O)O)S2)C(=O)N2C(C(=O)O)=C(CSc3nnnn3C)CS[C@@H]21 (some centres unmarked) [Cefotetan Na] | 4 (≈ 6.95 µM) | ≤ 8 |  | 32 (≈ 55.6 µM) |  | > 32 |  | 32 (≈ 55.6 µM) | > 32 |  |
| O=C(O)c1cn(C2CC2)c2cc(N3CCNCC3)c(F)cc2c1=O [Ciprofloxacin] | 1 (≈ 3.02 µM) |  | 2 (≈ 6.04 µM) | 2 (≈ 6.04 µM) | ≤ 0.5 | ≤ 0.5 | 1 (≈ 3.02 µM) | ≤ 0.5 |  | MIC ([1]; Isolate No.=2-8-21): ≤ 0.5 µg/mL |
| CO/N=C(\C(=O)N[C@@H]1C(=O)N2C(C(=O)O)=C(COC(N)=O)CS[C@H]12)c1ccco1 [Cefuroxime] | 32 (≈ 75.4 µM) | > 32 |  | 32 (≈ 75.4 µM) |  | > 32 |  | 32 (≈ 75.4 µM) |  | Km [11]: 76 ± 19 µM; Km [12]: 30 ± 5.8 µM |
| C[C@H]1[C@H](NC(=O)/C(=N\OC(C)(C)C(=O)O)c2csc(N)n2)C(=O)N1S(=O)(=O)O [Aztreonam] | 16 (≈ 36.7 µM) | ≤ 8 | 32 (≈ 73.5 µM) | 32 (≈ 73.5 µM) |  | > 32 |  | 32 (≈ 73.5 µM) | > 32 |  |
| O=C1CN(/N=C/c2ccc([N+](=O)[O-])o2)C(=O)N1 [Nitrofurantoin] | 128 (≈ 537 µM) | > 128 |  | 128 (≈ 537 µM) | 64 (≈ 269 µM) | 64 (≈ 269 µM) | 32 (≈ 134 µM) | 64 (≈ 269 µM) | ≤ 16 |  |
| COCC1=C(C(=O)O)N2C(=O)[C@@H](NC(=O)/C(=N\OC)c3csc(N)n3)[C@H]2SC1 [Cefpodoxime] | 16 (≈ 37.4 µM) | > 16 |  | 16 (≈ 37.4 µM) |  | > 16 |  | 4 (≈ 9.36 µM) | 8 (≈ 18.7 µM) |  |
